The values below come from patent publication US9028856B2, “Synergistic pesticide compositions” (priority 2008, dated 2015).

Series [1] concerns Argentine ant, Linepithema humile. As to the kind of experiment: Knockdown/mortality of ant workers under continuous exposure on treated glazed tile. Conditions: glazed tile. In a few lines: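 0.5% AI imidacloprid in acetone, alone or with 0.1, 1.0 or 5.0% additive (benzenepropanoic acid, oleic acid, methyl oleate, methyl linoleate, methyl palmitate or BHA), 1 ml dried overnight on glazed tile (~161 cm^2). Ten workers confined under continuous exposure, water from 3 h; knockdown/mortality scored at intervals and 24 h; ≥3 replicates.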

The test system of series [2] is susceptible/normal German cockroach (Monheim strain), Blattella germanica. Nature of the series: Knockdown/mortality of male cockroaches under continuous exposure on treated glazed tile. Conditions: glazed tile. Format: in vivo. In a few lines:
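Male cockroaches continuously exposed on treated glazed tile, dried overnight before exposure; at least three replicates. Knockdown/mortality scored at intervals from 5 or 10 min, over runs lasting 20 min to 24 h depending on test.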

[3] abbreviates: Table 57, Argentine ant, continuous exposure.
The mark [4] stands for this setting: Table 61, German cockroach (Monheim), continuous exposure.
Where [5] appears, read: Table 46, Trial 1, fipronil/Compound A in acetone.
The mark [6] stands for this setting: Table 47, Trial 2, fipronil/Compound A in acetone.
The mark [7] stands for this setting: Table 49, fipronil/adjuvant in acetone.
Where [8] appears, read: Table 53, fipronil/adjuvant in acetone, Monheim strain.

Molecules are shown by their SMILES.

In the case of `CC[S+]([O-])c1c(C#N)nn(-c2c(Cl)cc(C(F)(F)F)cc2Cl)c1N` (centres unmarked) [Ethiprole (1%)], in series [1] (setting [3]), the “Average % Mortality after 30 min” value worked out at 0% and the “Average % Mortality after 60 min” value is 0%. Further, in series [1] (Table 57, Argentine ant, continuous exposure, 45 min), the “Average % Mortality after 45 min” value was determined as 0%. In addition, the “Average % Mortality after 15 min” value in series [1] (Table 57, Argentine ant, continuous exposure, adjuvant = Compound A 1% + Compound B 0.5%) was found to be 0%. In addition, in series [2] (setting [4]), the “Average % Knockdown & Mortality after 3 hr” value was 13%, the “Average % Knockdown & Mortality after 5 hr” value is 27% and the “Average % Knockdown & Mortality after 24 hr” value came to 73%. Further, the “Average % Knockdown & Mortality after 1 hr” value in series [2] (Table 61, German cockroach (Monheim), continuous exposure, adjuvant = Compound A 1% + Compound B 0.5%, 1 hr) came out at 0%.

Consider `N#Cc1nn(-c2c(Cl)cc(C(F)(F)F)cc2Cl)c(N)c1[S+]([O-])C(F)(F)F` (centres unmarked) [Fipronil (.001%)], for which, in series [1] (setting [5]), the “Average % Mortality after 5 min” value is on record as 0%, the “Average % Mortality after 15 min” value is listed as 0%, the “Average % Mortality after 30 min” value is 0% and the “Average % Mortality after 60 min” value was 0%. Moreover, in series [1] (setting [5]), the “Average % Mortality after 2 hr” value was 0%, the “Average % Mortality after 4 hr” value was found to be 74% and the “Average % Mortality after 24 hr” value came out at 100%. Also, in series [1] (setting [6]), the “Average % Mortality after 5 min” value is 0%, the “Average % Mortality after 15 min” value is 0%, the “Average % Mortality after 30 min” value is 0% and the “Average % Mortality after 60 min” value is reported as 0%. Moreover, in series [1] (setting [6]), the “Average % Mortality after 2 hr” value was determined as 0%, the “Average % Mortality after 4 hr” value amounted to 28% and the “Average % Mortality after 24 hr” value is on record as 100%. For the same compound, in series [1] (setting [7]), the “Average % Mortality after 30 min” value is 0%, the “Average % Mortality after 60 min” value is listed as 0%, the “Average % Mortality after 2 hr” value amounted to 0% and the “Average % Mortality after 3 hr” value is listed as 3%. The “Average % Mortality after 24 hr” value in series [1] (setting [7]) came out at 100%. Further, in series [2] (setting [8]), the “Average % Knockdown & Mortality after 60 min” value was 0%, the “Average % Knockdown & Mortality after 3 hr” value came to 0%, the “Average % Knockdown & Mortality after 5 hr” value is listed as 0% and the “Average % Knockdown & Mortality after 24 hr” value amounted to 40%.

Regarding `N#Cc1nn(-c2c(Cl)cc(C(F)(F)F)cc2Cl)c(N)c1[S+]([O-])C(F)(F)F` (centres unmarked) [Fipronil (.01%)], in series [1] (setting [5]), the “Average % Mortality after 5 min” value amounted to 0%, the “Average % Mortality after 15 min” value is 0%, the “Average % Mortality after 30 min” value was found to be 0% and the “Average % Mortality after 60 min” value amounted to 0%. In addition, in series [1] (setting [5]), the “Average % Mortality after 2 hr” value is recorded as 0%, the “Average % Mortality after 4 hr” value amounted to 47% and the “Average % Mortality after 24 hr” value amounted to 100%. Moreover, in series [1] (setting [7]), the “Average % Mortality after 30 min” value came to 0%, the “Average % Mortality after 60 min” value amounted to 0%, the “Average % Mortality after 2 hr” value amounted to 0% and the “Average % Mortality after 3 hr” value was determined as 0%. Also, in series [1] (setting [7]), the “Average % Mortality after 24 hr” value is 100%. Besides, in series [2] (setting [8]), the “Average % Knockdown & Mortality after 60 min” value was found to be 0%, the “Average % Knockdown & Mortality after 3 hr” value worked out at 7%, the “Average % Knockdown & Mortality after 5 hr” value is 7% and the “Average % Knockdown & Mortality after 24 hr” value is reported as 100%.
